Data reported in article PMC11233931, “Remodeling tumor‐associated macrophage for anti‐cancer effects by rational design of irreversible inhibition of mitogen‐activated protein kinase‐activated protein kinase 2” (MedComm, 2024).

Legend:
Assay in all cases: Eurofins kinase selectivity profile against 380 other human recombinant kinases (Table S2)
Type in all cases: biochemical
[1] = target: T1, 380 human recombinant protein kinases (Homo sapiens, UniProt O75460); details: IRE1(h), read-out: Inhibition rate
T1 construct: purchased Eurofins (Celle Lévescault)
Outline: (§1)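 Commercial selectivity screen of the test compound against a panel of 380 human recombinant protein kinases, run by an outside contractor at several compound concentrations to check whether its potency was specific for MK2.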

[2] = target: T2, 380 human recombinant protein kinases (Homo sapiens, UniProt Q9H0K1); details: SIK2(h), read-out: Inhibition rate (%)
T2 construct: purchased Eurofins (Celle Lévescault)
Outline: as §1

[3] = target: T3, 380 human recombinant protein kinases (Homo sapiens, UniProt Q00537); details: CDK17/cyclinY(h), read-out: Inhibition rate
T3 construct: purchased Eurofins (Celle Lévescault)
Outline: as §1

[4] = target: T4, 380 human recombinant protein kinases (Homo sapiens, UniProt P06241); details: Fyn(h), read-out: Inhibition rate
T4 construct: purchased Eurofins (Celle Lévescault)
Outline: as §1

[5] = target: T5, 380 human recombinant protein kinases (Homo sapiens, UniProt Q9H2K8); details: TAO3(h), read-out: Inhibition rate (%)
T5 construct: purchased Eurofins (Celle Lévescault)
T5 sequence (Q9H2K8 1-898): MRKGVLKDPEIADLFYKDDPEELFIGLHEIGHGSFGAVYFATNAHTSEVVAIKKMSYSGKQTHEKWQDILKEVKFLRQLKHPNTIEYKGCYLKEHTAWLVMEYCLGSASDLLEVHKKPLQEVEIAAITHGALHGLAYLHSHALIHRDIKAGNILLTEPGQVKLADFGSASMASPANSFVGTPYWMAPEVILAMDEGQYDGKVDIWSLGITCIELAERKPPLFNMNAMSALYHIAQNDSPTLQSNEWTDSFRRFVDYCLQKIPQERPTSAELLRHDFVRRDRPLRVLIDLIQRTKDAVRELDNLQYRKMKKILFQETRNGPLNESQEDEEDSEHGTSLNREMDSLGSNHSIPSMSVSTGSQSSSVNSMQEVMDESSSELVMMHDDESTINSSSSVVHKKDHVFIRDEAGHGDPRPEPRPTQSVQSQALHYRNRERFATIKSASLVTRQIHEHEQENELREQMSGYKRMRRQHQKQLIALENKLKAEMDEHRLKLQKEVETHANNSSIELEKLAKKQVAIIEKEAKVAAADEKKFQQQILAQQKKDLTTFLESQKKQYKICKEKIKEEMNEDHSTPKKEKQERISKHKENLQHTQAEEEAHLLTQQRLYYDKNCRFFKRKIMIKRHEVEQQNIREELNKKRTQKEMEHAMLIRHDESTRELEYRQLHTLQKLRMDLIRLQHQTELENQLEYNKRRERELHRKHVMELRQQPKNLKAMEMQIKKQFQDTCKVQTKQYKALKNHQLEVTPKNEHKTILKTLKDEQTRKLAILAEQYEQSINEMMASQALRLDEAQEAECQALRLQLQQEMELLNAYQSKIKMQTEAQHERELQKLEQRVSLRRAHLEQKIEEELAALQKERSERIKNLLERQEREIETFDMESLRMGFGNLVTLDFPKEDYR
Outline: as §1

[6] = target: T6, 380 human recombinant protein kinases (Homo sapiens, UniProt Q5MAI5); details: CDKL4(h), read-out: Inhibition rate
T6 construct: purchased Eurofins (Celle Lévescault)
Outline: as §1

[7] = test system: 380 human recombinant protein kinases
Outline: as §1

[8] = target: T7, 380 human recombinant protein kinases (Homo sapiens, UniProt Q9UQB9); details: Aurora-C(h), read-out: Inhibition rate
T7 construct: purchased Eurofins (Celle Lévescault)
T7 sequence (Q9UQB9 1-309): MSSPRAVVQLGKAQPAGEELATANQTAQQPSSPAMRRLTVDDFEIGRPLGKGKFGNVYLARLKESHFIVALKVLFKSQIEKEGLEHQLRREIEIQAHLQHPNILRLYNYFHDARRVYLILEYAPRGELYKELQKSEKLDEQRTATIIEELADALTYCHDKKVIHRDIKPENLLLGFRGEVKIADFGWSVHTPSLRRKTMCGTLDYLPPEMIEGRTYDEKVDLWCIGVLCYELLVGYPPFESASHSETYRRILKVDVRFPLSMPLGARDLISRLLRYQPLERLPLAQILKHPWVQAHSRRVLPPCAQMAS
Outline: as §1

T3 sequence (Q00537 whole entry): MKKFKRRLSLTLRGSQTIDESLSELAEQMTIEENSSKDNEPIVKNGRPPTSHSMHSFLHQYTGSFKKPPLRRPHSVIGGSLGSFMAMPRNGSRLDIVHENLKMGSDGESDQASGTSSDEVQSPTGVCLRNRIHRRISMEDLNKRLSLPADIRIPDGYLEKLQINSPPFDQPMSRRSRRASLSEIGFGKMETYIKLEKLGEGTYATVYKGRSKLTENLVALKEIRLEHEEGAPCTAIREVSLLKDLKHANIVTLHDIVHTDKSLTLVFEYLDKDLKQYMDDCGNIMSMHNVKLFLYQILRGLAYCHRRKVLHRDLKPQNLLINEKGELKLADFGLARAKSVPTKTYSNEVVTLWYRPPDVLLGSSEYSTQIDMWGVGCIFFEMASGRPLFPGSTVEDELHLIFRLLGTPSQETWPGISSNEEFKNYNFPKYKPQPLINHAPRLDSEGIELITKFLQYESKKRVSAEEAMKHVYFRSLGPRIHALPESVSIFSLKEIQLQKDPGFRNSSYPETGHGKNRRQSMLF
T2 sequence (Q9H0K1 whole entry): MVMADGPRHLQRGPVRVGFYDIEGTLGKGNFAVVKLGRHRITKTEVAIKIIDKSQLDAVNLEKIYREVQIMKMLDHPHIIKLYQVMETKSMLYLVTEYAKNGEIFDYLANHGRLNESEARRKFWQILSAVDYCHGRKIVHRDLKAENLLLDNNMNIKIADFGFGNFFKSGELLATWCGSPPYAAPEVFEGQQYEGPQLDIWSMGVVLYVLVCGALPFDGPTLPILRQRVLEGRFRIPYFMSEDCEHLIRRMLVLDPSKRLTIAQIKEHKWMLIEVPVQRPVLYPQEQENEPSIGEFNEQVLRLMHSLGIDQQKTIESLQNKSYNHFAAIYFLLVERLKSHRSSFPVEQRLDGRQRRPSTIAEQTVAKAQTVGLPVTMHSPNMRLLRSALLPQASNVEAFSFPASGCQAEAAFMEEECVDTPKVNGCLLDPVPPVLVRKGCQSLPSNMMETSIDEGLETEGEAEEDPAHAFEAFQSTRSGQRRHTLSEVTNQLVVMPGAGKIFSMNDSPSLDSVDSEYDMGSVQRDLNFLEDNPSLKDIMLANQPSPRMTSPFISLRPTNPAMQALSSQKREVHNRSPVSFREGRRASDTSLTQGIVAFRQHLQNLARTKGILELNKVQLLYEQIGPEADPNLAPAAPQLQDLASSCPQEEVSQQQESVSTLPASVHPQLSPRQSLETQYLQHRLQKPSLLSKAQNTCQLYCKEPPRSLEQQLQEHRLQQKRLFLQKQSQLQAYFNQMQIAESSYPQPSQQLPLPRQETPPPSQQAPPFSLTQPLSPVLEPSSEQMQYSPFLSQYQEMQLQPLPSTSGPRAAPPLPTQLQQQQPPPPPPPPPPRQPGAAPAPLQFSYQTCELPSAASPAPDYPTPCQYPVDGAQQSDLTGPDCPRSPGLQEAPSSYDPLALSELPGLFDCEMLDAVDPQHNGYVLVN
T6 sequence (Q5MAI5 whole entry): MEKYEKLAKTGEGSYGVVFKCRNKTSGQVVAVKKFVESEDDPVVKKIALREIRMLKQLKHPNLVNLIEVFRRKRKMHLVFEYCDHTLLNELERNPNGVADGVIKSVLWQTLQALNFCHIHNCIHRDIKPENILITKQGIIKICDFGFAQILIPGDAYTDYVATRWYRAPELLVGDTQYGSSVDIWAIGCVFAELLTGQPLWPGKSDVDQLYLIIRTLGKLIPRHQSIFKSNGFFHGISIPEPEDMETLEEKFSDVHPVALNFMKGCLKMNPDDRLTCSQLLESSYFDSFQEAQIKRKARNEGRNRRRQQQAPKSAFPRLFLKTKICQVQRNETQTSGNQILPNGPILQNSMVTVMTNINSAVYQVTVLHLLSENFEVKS
T4 sequence (P06241 whole entry): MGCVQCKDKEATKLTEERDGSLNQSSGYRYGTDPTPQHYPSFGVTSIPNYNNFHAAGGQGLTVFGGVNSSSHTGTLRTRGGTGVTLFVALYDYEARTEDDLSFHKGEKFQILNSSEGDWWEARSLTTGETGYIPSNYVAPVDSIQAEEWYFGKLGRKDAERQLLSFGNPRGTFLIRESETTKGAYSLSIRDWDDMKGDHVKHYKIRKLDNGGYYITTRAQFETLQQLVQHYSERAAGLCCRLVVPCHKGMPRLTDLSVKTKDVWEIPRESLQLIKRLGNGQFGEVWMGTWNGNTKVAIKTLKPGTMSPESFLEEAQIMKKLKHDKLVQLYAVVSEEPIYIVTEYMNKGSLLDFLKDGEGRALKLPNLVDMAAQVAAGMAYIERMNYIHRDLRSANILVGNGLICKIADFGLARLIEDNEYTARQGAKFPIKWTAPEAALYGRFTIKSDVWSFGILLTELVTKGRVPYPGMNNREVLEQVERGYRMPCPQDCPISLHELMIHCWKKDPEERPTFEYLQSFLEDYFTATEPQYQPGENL
T1 sequence (O75460 19-977): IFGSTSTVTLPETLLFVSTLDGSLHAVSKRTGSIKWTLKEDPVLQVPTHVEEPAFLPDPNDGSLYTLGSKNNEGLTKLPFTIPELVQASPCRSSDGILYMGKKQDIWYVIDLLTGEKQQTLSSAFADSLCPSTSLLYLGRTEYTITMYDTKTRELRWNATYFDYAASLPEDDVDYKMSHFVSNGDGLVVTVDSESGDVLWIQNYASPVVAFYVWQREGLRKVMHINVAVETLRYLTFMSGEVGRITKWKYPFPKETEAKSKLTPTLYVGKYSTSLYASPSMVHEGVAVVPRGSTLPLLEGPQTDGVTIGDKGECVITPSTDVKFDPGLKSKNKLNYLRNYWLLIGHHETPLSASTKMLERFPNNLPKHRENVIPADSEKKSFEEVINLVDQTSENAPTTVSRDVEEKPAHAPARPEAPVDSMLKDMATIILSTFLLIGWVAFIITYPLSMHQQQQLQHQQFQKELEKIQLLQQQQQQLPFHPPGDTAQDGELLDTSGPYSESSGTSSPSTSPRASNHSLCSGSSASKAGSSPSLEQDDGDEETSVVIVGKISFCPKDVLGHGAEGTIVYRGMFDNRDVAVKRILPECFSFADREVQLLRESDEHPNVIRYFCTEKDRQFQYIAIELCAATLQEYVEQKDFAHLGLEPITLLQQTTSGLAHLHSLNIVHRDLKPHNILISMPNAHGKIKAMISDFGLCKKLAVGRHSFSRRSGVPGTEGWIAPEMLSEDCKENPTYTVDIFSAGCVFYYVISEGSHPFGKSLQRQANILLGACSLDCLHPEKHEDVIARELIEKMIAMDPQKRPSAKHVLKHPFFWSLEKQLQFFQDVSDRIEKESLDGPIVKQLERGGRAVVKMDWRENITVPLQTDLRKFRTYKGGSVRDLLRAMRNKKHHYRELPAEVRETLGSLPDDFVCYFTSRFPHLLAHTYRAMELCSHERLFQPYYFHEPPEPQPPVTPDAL

`C=CC(=O)Nc1cc(-c2cc(-c3cc4c([nH]3)CCNC4=O)ccn2)ccc1OC(F)(F)F` [compound 11] was tested. Which inhibition at 0.01 µM ([1]; 10 nM) did it give?
Its inhibition at 0.01 µM is 0%.

What about the inhibition at 0.1 µM ([1]; 100 nM) of the same molecule?
Its inhibition at 0.1 µM is -2%.

What about the inhibition at 1 µM ([1]; 1000 nM) of the same molecule?
Its inhibition at 1 µM is 0%.

What about the inhibition at 0.01 µM ([2]; 10 nM) of the same molecule?
The inhibition at 0.01 µM was 2%.

And the inhibition at 0.1 µM ([2]; 100 nM)?
Its inhibition at 0.1 µM is 4%.

What about the inhibition at 1 µM ([2]; 1000 nM) of the same molecule?
Its inhibition at 1 µM is 8%.

And the inhibition at 0.01 µM ([3]; 10 nM)?
The inhibition at 0.01 µM was 13%.

What about the inhibition at 0.1 µM ([3]; 100 nM) of the same molecule?
The inhibition at 0.1 µM was 19%.

And the inhibition at 1 µM ([3]; 1000 nM)?
The inhibition at 1 µM was 25%.

And the inhibition at 0.01 µM ([4]; 10 nM)?
The inhibition at 0.01 µM was 0%.

And the inhibition at 0.1 µM ([4]; 100 nM)?
Its inhibition at 0.1 µM is 0%.

What about the inhibition at 1 µM ([4]; 1000 nM) of the same molecule?
The inhibition at 1 µM was 3%.

And the inhibition at 0.01 µM ([5]; 10 nM)?
The inhibition at 0.01 µM was -4%.

And the inhibition at 0.1 µM ([5]; 100 nM)?
The inhibition at 0.1 µM was 0%.

And the inhibition at 1 µM ([5]; 1000 nM)?
Its inhibition at 1 µM is 7%.

And the inhibition at 0.01 µM ([6]; 10 nM)?
The inhibition at 0.01 µM was 50%.

What about the inhibition at 0.1 µM ([6]; 100 nM) of the same molecule?
The inhibition at 0.1 µM was 83%.

And the inhibition at 1 µM ([6]; 1000 nM)?
Its inhibition at 1 µM is 93%.

And the “inhibitory rate on the other 380 kinases tested” value ([7]; 10 nM, all 380 kinases)?
The value was “less than 50%”.

What about the “selectivity for MK2 over the other tested kinases” value ([7]; 91.8% of total tested kinases) of the same molecule?
The value was “more than 434 fold”.

And the Inhibition rate ([7]; ACTR2(h), 10 nM)?
Its Inhibition rate is -9%.

And the Inhibition rate ([7]; ACTR2(h), 100 nM)?
The Inhibition rate was -11%.

What about the Inhibition rate ([7]; ACTR2(h), 1000 nM) of the same molecule?
The Inhibition rate was -8%.

What about the Inhibition rate ([7]; MAPK1(h), 10 nM) of the same molecule?
The Inhibition rate was -1%.

And the Inhibition rate ([7]; MAPK1(h), 100 nM)?
Its Inhibition rate is 0%.

And the Inhibition rate ([7]; MAPK1(h), 1000 nM)?
The Inhibition rate was 7%.

And the Inhibition rate ([7]; PKCβII(h), 10 nM)?
The Inhibition rate was -1%.

What about the Inhibition rate ([7]; PKCβII(h), 100 nM) of the same molecule?
Its Inhibition rate is 4%.

And the Inhibition rate ([7]; PKCβII(h), 1000 nM)?
Its Inhibition rate is 6%.

And the Inhibition rate ([7]; PKG1β(h), 10 nM)?
Its Inhibition rate is 7%.

And the Inhibition rate ([7]; PKG1β(h), 100 nM)?
The Inhibition rate was 10%.

And the Inhibition rate ([7]; PKG1β(h), 1000 nM)?
Its Inhibition rate is 5%.

And the inhibition at 0.01 µM ([8]; 10 nM)?
The inhibition at 0.01 µM was 2%.

What about the inhibition at 0.1 µM ([8]; 100 nM) of the same molecule?
The inhibition at 0.1 µM was -5%.

What about the inhibition at 1 µM ([8]; 1000 nM) of the same molecule?
The inhibition at 1 µM was 6%.
